The IC50 is the point on the concentration scale where inhibition reaches its midpoint. Lower therefore signals greater potency.

Assay [1] has as its target T1, human jejunal NK2 receptor (Homo sapiens, UniProt P21452).
T1 construct: expressed in transfected cells; host or cells: HSKR-1 cells (mouse 3T3 fibroblasts)
T1 sequence (P21452 1-398): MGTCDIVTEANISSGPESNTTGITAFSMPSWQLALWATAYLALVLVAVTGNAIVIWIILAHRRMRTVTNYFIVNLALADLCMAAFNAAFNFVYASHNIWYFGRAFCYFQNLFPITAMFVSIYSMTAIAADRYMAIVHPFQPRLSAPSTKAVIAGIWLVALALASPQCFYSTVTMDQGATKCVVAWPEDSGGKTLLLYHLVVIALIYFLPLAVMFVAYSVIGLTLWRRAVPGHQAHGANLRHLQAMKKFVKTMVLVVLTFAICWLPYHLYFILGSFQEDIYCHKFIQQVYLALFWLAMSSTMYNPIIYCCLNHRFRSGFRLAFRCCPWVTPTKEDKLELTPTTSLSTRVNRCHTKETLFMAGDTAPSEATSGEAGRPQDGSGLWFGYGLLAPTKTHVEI
As to the kind of experiment: Antagonism of iodinated neurokinin A binding to NK2 receptor, HSKR-1 cells (mouse 3T3 fibroblasts expressing the human jejunal NK2 receptor). Particulars: for IC50: NK-2 IC50, HSKR-1 cells, 125I-neurokinin A, mean of several experiments. The method, then:
(§1) ANTAGONISM OF IODINATED TACHYKININ BINDING TO NK1 AND NK2
(§2) RECEPTORS BY PUTATIVE ANTAGONISTS
(§3) The NK1 receptor affinity of proposed tachykinin antagonists was evaluated in guinea pig lungs (Keystone Biologicals, Cleveland, OH), affinity for the NK2 receptor evaluated in HSKR-1 cells (which are mouse 3T3 fibroblasts expressing the human jejunal NK2 receptor) and NK-3 receptor affinity was evaluated in freshly collected guinea pig cerebral cortex. Tissues or cells were homogenized with a Polytron in 15 volumes of 50 mM Tris-HCl buffer (pH 7.4, 4° C.) and centrifuged. The pellet was resuspended in Tris-HCl buffer and was centrifuged; the pellet was washed twice by resuspension. The final pellet was resuspended at a concentration of 40 mg/ml for tissues (guinea pig lung and cerebral cortex) and 20 mg/ml for cells in incubation buffer and remained at room temperature for at least 15 min prior to use. Receptor binding was initiated by addition of 250 ul membrane preparation in duplicate to 0.1 nM of the following radioligands: ^125 I-Bolton Hunter Lys-3 labeled substance P; ^125 iodohistidyl-1-neurokinin A; and ^125 I-Bolton Hunter labeled Lys-4 eledoisin in a final volume of 500 ul of buffer containing 50 mM Tris-HCl (pH 7.4 at room temperature), 0.1% bovine serum albumin, 2 mM MnCl2, 40 ug/ml bacitracin, 4 μg/ml leupeptin and chymostatin, 1 μM thiorphan and various doses of the putative tachykinin antagonists. Incubations were performed at room temperature for 90 min (NK1 receptor assays) or 2 hr (NK2 and NK3 receptor assays); binding was terminated by addition of 50 mM Tris-HCl buffer (pH 7.4, 4° C.) and filtration under vacuum through GF/B filters presoaked with 0.1% polyethyleneimine (NK1 receptor assays) or 0.5% bovine serum albumin (NK2 and NK3 receptor assays). Filter bound radioactivity was quantitated in a gamma counter. Nonspecific binding was defined as binding in the presence of 1 μM substance P, neurokinin A, or eledoisin. Specific binding was calculated by subtracting nonspecific binding from total binding. Competition of iodinated SP, NKA, or eledoisin binding by test compounds or standards was expressed as a percentage of this maximum competition. IC50 values (concentration required to inhibit 50% of receptor binding) were generated for each of the test compounds by nonlinear regression using an iterative curve fitting program (GraphPAD Inplot, San Diego, Calif.).

For assay [2], the target named is T2, NK1 receptor (Cavia porcellus, UniProt P30547).
T2 construct: evaluated in guinea pig lungs; tissue Keystone Biologicals, Cleveland, OH; host or cells: guinea pig lung
The experiment in a line: Antagonism of iodinated substance P binding to NK1 receptor, guinea pig lung. The settings on record: for IC50: NK-1 IC50, guinea pig lung, 125I-substance P, mean of several experiments. How it is done: as §1, §2, §3

Assay [3] addresses T3, NK1 receptor (Homo sapiens, UniProt P25103).
T3 construct: antagonizes both NK1 (on UC11 cells); endogenous in cells; host or cells: UC11 cells
The experiment in a line: Antagonism of NK1 receptor mediated (SP-induced) phosphatidylinositol turnover in UC11 cells. The assay is classed as cell-based. How it is done:
Tachykinin-mediated inositol phosphate accumulation was measured in UC11 or SKLKB82#3 cells in the presence and absence of NK1 or NK2 receptor antagonists, respectively. Tissues were incubated in Krebs-Henseleit buffer at 37° C. with 95% O2 -5% CO2 gassing. Tissues were then incubated with fresh buffer containing 100 μCi of myo-[2-3H(N)] inositol at 37° C. for 60 min with gentle gassing. After washing twice in 5 ml room temperature buffer containing 10 mM LiCl, tissues were incubated for 30 min at room temperature with a buffer change at 15 min. Buffer was removed and Krebs-Henseleit buffer (containing 40 μg/ml bacitracin, 4 μg/ml each of leupeptin and chymostatin, 0.1% bovine serum albumin and 10 mM each of thiorphan and LiCl) added. After 15 min, SP was added to UC11 cells or NKA to SKLKB82#3 cells at various concentrations to start the reaction. After incubation for 60 min at room temperature the reaction was terminated by addition of 930 μl chloroform: methanol (1:2 by volume) to each tube, followed by 310 μl chloroform and 310 μl doubly distilled water. Samples were vortexed, centrifuged, and 0.9 ml of the aqueous (top) phase removed and added to 2 ml ddH2 O. The mixture was vortexed and loaded onto a 50% Bio-Rad AG 1-X8 (formate form, 100-200 mesh) exchange column (Bio-Rad Laboratories, Hercules, Calif.). The columns were washed, in order, with: 1) 10 ml doubly distilled water, 2) 5 ml of 5 mM disodium tetraborate/60 mM sodium formate, and 3) 5 ml of 1M ammonium formate/0.1M formic acid. The third elution was collected and 1 ml counted in 7 ml scintillation fluid. A 50 μl aliquot of the organic (bottom) phase was removed, dried in a scintillation vial and counted in 7 ml scintillation fluid.
The ratio of DPM in the aqueous phase aliquot (total inositol phosphates) to the DPM in the 50 μl organic phase aliquot (total [^3 H]inositol incorporated) was calculated for each sample. Data are expressed as a percent of agonist-induced accumulation of [^3 H]-inositol phosphates over basal levels. The ratios in the presence of test compound and/or standards were compared to the ratios for control samples (i.e. no stimulating agonist). Dose-response graphs were constructed and the abilities of the test compounds to inhibit tachykinin-induced phosphatidyinositol turnover determined with the aid of a computer program. […] Data is expressed as percent stimulation of total inositol phosphate accumulation over basal levels and normalized to the maximum response produced by SP. […] Schild analysis is performed using dose response curves (such as those presented in FIGS. 1a and 1b) to obtain a value indicative of the strength of a competitive antagonist and is expressed as the pA2, which is the negative logarithm of the molar concentration of antagonist which reduces the effect of a dose of agonist to one-half of that expected at the dose of agonist.

T3 sequence (P25103 whole entry): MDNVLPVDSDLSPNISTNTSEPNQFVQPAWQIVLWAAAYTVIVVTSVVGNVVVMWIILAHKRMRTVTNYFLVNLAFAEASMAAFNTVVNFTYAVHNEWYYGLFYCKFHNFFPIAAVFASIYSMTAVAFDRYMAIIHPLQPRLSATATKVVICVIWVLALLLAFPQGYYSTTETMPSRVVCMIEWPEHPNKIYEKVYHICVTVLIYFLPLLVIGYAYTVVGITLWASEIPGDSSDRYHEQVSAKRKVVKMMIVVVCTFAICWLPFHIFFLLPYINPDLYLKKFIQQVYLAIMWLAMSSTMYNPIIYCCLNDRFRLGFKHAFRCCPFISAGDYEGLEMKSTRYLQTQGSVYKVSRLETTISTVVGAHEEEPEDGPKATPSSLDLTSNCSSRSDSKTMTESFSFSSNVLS
T2 sequence (P30547 whole entry): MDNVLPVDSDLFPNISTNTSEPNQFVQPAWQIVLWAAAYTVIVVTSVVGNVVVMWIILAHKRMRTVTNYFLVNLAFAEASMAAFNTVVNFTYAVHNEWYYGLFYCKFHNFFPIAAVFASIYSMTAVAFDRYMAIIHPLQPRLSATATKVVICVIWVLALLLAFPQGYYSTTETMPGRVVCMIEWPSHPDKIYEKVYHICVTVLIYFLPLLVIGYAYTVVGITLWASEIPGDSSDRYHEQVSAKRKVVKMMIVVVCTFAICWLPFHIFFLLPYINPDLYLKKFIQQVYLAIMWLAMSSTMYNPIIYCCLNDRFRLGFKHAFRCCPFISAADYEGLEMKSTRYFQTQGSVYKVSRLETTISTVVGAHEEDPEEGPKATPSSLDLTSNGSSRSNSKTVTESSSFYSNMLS

With `COc1cc(C(=O)N2CCC(CCN3CCC(C(N)=O)(c4ccccc4)CC3)(c3ccc(Cl)c(Cl)c3)C2)cc(OC)c1OC` (stereo not shown) [Example 3, 1-[2-[3-(3,4-dichloro-phenyl)-1-(3,4,5-trimethoxy-benzoyl)-pyrrolidin-3-yl]-ethyl]-4-phenyl-piperidine-4-carboxylic acid amide], the “affinity for NK2 receptors (in words)” value in assay [1] (HSKR-1 cells) is reported as “high affinity”. The “affinity for NK1 receptors (in words)” value in assay [2] (guinea pig lung) is given as “high affinity”. Further, the “antagonism of SP-induced PI turnover (in words)” value in assay [3] (UC11 cells, FIG. 1a) was “antagonizes both NK1 (on UC11 cells) and NK2 (on SKLKB82#3) receptors in a dose-dependent manner”. The “agonist activity (stimulation of PI turnover by compound alone)” value in assay [3] (UC11 or SKLKB82#3 cells) is “no agonist activity”.

With `COc1cc(C(=O)N2CCC(CCN3CCC(C(N)=O)(c4ccccc4)CC3)(c3ccc(Cl)c(Cl)c3)C2)cc(OC)c1OC.Cl` (single isomer, unassigned; (+)) [Example 20A, (+)-1-[2-[3-(3,4-dichloro-phenyl)-1-(3,4,5-trimethoxy-benzoyl)-pyrrolidin-3-yl]-ethyl]-4-phenyl-piperidine-4-carboxylic acid amide hydrochloride], the half-maximal inhibitory concentration (IC50) in assay [1] is 7.93 nM; in assay [2], 2.99 nM.

Take `COc1cc(C(=O)N2CCC(CCN3CCC(C(N)=O)(c4ccccc4)CC3)(c3ccc(Cl)c(Cl)c3)C2)cc(OC)c1OC` (single isomer, unassigned; (+)) [Example 20, (+)-1-[2-[3-(3,4-dichloro-phenyl)-1-(3,4,5-trimethoxy-benzoyl)-pyrrolidin-3-yl]-ethyl]-4-phenylpiperidine-4-carboxylic acid amide]: the figures for the IC50 in assay [1] and in assay [2] were 8.4 nM and 4.65 nM, respectively. In addition, in assay [3] (PI turnover, UC11 (NK1) versus SKLKB82#3 (NK2) cells), the “relative antagonism of NK1 and NK2 receptors (in words)” value was “antagonized both NK1 and NK2 receptors by nearly equivalent amounts”. Further, the Kb in assay [3] (UC11 cells, SP, Schild analysis, mean (95% confidence limits), 2-3 experiments, read-out: NK-1 receptor pA2 (converted)) is 6.46 nM.
